Laboratory results taken from the NIST ThermoML archive (doi:10.1016/j.jct.2013.09.017).
± gives the expanded uncertainty stated by the source.

Assay: xn = mol fraction of the nth substance listed
Settings: 101 kPa, Liquid; for viscosity: Capillary tube (Ostwald / Ubbelohde) method; for mass density: Vibrating tube method

CCCCCCCCN(CCCCCCCC)CCCCCCCC [trioctylamine] + CCCCCCC
Settings	mass density, 283.15 K [kg/m3]	mass density, 293.15 K [kg/m3]	mass density, 303.15 K [kg/m3]	viscosity, 283.15 K [mPa·s]	viscosity, 293.15 K [mPa·s]	viscosity, 303.15 K [mPa·s]
x1 = 0.0102	696.37 ± 0.26	688.04 ± 0.26	679.6 ± 0.26	0.494 ± 0.011	0.44 ± 0.01	0.394 ± 0.009
x1 = 0.103	726.07 ± 0.27	718.22 ± 0.27	710.29 ± 0.27	0.856 ± 0.019	0.738 ± 0.016	0.642 ± 0.014
x1 = 0.2636	759.83 ± 0.31	752.47 ± 0.31	745.07 ± 0.31	1.827 ± 0.04	1.51 ± 0.033	1.269 ± 0.028
x1 = 0.3223	768.63 ± 0.33	761.41 ± 0.33	754.13 ± 0.33	2.321 ± 0.051	1.899 ± 0.042	1.569 ± 0.035
x1 = 0.409	779.4 ± 0.36	772.31 ± 0.36	765.19 ± 0.36	3.241 ± 0.072	2.57 ± 0.057	2.055 ± 0.046
x1 = 0.5079	789.24 ± 0.4	782.28 ± 0.39	775.31 ± 0.39	4.499 ± 0.1	3.464 ± 0.078	2.734 ± 0.062
x1 = 0.5997	796.55 ± 0.44	789.72 ± 0.43	782.85 ± 0.43	5.814 ± 0.13	4.377 ± 0.1	3.374 ± 0.077
x1 = 0.7019	803.32 ± 0.48	796.55 ± 0.48	789.77 ± 0.48	7.438 ± 0.17	5.434 ± 0.13	4.107 ± 0.095
x1 = 0.8063	808.97 ± 0.53	802.27 ± 0.53	795.57 ± 0.53	9.477 ± 0.22	6.792 ± 0.16	5 ± 0.12
x1 = 0.906	813.43 ± 0.59	806.79 ± 0.58	800.15 ± 0.58	11.64 ± 0.27	8.231 ± 0.19	5.972 ± 0.14
x1 = 1	817.08 ± 0.64	810.48 ± 0.64	803.88 ± 0.63	14.25 ± 0.34	9.957 ± 0.24	7.114 ± 0.17
